For 28 molecules, EC50 results are on record in patent US9266835B2, “Quinoline derivatives useful as CB-1 inverse agonists” (JANSSEN PHARMACEUTICA NV, priority 2014, dated 2016).

Where only a bound is given, the exact number is not on record here.

For experiment [1], the target named is Human CB1R (Cannabinoid receptor 1) (Homo sapiens (Human), UniProt P21554). Briefly: CB-1 in vitro cAMP assay (HTRF), inverse agonism. It is filed as cell-based. As to conditions: mean where tested more than once. Background: cAMP levels reflect the balance of adenylyl cyclase and phosphodiesterase activity.
Human CB1R (Cannabinoid receptor 1), sequence (P21554 whole entry): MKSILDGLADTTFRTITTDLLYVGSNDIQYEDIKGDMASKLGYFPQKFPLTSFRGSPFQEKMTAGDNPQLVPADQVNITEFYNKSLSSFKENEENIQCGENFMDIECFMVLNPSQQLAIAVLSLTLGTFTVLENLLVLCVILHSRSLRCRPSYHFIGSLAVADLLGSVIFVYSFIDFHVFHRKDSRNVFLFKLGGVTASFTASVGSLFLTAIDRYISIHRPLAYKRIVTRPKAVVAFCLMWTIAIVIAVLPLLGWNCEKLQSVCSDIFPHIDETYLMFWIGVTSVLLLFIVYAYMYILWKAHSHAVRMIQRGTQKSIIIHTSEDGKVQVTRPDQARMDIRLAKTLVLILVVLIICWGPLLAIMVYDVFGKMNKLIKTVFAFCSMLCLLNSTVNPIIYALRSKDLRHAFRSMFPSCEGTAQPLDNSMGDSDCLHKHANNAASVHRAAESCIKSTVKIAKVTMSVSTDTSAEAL
The target in experiment [2] is Human CB2R (Cannabinoid receptor 2) (Homo sapiens (Human), UniProt P34972). Briefly: CB-2 in vitro cAMP assay (HTRF), inverse agonism. It is filed as cell-based. As to conditions: mean where tested more than once.
Human CB2R (Cannabinoid receptor 2), sequence (P34972 whole entry): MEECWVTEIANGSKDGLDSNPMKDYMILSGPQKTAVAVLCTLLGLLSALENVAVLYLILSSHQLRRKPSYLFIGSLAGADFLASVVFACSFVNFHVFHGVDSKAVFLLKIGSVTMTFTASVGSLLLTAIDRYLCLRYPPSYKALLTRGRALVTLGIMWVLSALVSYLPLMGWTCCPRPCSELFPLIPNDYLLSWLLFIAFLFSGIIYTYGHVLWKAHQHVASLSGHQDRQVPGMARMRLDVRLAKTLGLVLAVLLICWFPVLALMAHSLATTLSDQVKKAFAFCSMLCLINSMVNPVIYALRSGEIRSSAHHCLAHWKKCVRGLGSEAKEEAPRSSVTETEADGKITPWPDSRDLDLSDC

Regarding `COc1ccc(C(O)(c2ccc3nccc(/C=C/c4ccccc4)c3c2)c2nccs2)cc1` (centres unmarked) [Compound 504, (E)-(4-methoxyphenyl)(4-styrylquinolin-6-yl)(thiazol-2-yl)methanol], the EC50 – broadly, the concentration that produces a half-maximal response – is 342 nM in experiment [1] and over 10000 nM in experiment [2].

Regarding `COc1ccc(C(c2ccc3nccc(/C=C/c4ccccc4)c3c2)c2nccs2)cc1` (centres unmarked) [Compound 505, (E)-2-((4-methoxyphenyl)(4-styrylquinolin-6-yl)methyl)thiazole], the EC50 in experiment [1] was 326 nM; in experiment [2], over 10000 nM.

As for `OC(c1ccc(Cl)cc1)(c1ccc2nccc(/C=C/c3ccccc3)c2c1)c1cccs1` (centres unmarked) [Compound 506, (4-Chlorophenyl){4-[(E)-2-phenylethenyl]quinolin-6-yl}thiophen-2-ylmethanol], the EC50 in experiment [1] and in experiment [2] was over 10000 nM in each case.

Take `OC(c1ccc(Cl)cc1)(c1ccsc1)c1ccc2nccc(/C=C/c3ccccc3)c2c1` (centres unmarked) [Compound 507, (4-Chlorophenyl){4-[(E)-2-phenylethenyl]quinolin-6-yl}thiophen-3-ylmethanol]: the EC50 was 5480 nM in experiment [1] and over 10000 nM in experiment [2].

Take `Clc1ccc(C(c2ccc3nccc(/C=C/c4ccccc4)c3c2)c2cccs2)cc1` (centres unmarked) [Compound 508, 6-[(4-Chlorophenyl)(thiophen-2-yl)methyl]-4-[(E)-2-phenylethenyl]quinoline]: the EC50 in experiment [1] is 375 nM; in experiment [2], over 10000 nM.

Consider `Clc1ccc(C(c2ccsc2)c2ccc3nccc(/C=C/c4ccccc4)c3c2)cc1` (centres unmarked) [Compound 509, 6-[(4-Chlorophenyl)(thiophen-3-yl)methyl]-4-[(E)-2-phenylethenyl]quinoline], for which the EC50 is 140 nM in experiment [1] and over 10000 nM in experiment [2].

On to `Clc1ccc(C(c2ccc3nccc(/C=C/c4ccccc4)c3c2)c2nccs2)cc1` (centres unmarked) [Compound 511, (E)-2((4-chlorophenyl)(4-styrylquinolin-6-yl)methyl)thiazole], for which the EC50 in experiment [1] was 136 nM; in experiment [2], over 10000 nM.

For `COc1ccc(C(O)(c2ccc(Cl)cc2)c2ccc3nc(OC(C)(C)C)cc(/C=C/c4ccccc4)c3c2)cc1` (centres unmarked) [Compound 512, (E)-(2-(tert-butoxy)-4-styrylquinolin-6-yl)(4-chlorophenyl)(4-methoxyphenyl)methanol], the concentration for a half-maximal effect (EC50) in experiment [1] and in experiment [2] was over 10000 nM each time.

On to `CC(C)(C)OC(=O)N1CC=C(c2ccnc3ccc(C(c4ccc(Cl)cc4)c4nccs4)cc23)CC1` (centres unmarked) [Compound 513, tert-butyl 4-(6-((4-chlorophenyl)(thiazol-2-yl)methyl)quinolin-4-yl)-5,6-dihydropyridine-1(2H)-carboxylate], for which the results for the EC50 in experiment [1] and in experiment [2] were 1500 nM and over 10000 nM, respectively.

As for `COc1ccc(C(c2ccc(Cl)cc2)c2ccc3[nH]c(=O)cc(/C=C/c4ccccc4)c3c2)cc1` (centres unmarked) [Compound 514, (E)-6-((4-chlorophenyl)(4-methoxyphenyl)methyl)-4-styrylquinolin-2(1H)-one], the EC50 is 426 nM in experiment [1] and over 10000 nM in experiment [2].

With `O=c1cc(Cc2ccc(OC(F)(F)F)cc2)c2cc(C(c3ccc(Cl)cc3)c3nccs3)ccc2[nH]1` (centres unmarked) [Compound 515, 6-((4-chlorophenyl)(thiazol-2-yl)methyl)-4-(4-(trifluoromethoxy)benzyl)quinolin-2(1H)-one], the EC50 is 366 nM in experiment [1] and over 10000 nM in experiment [2].

Consider `OC(c1ccc(Cl)cc1)(c1ccc2nccc(/C=C/c3ccccc3)c2c1)c1cscn1` (centres unmarked) [Compound 517, (E)-(4-chlorophenyl)(4-styrylquinolin-6-yl)(thiazol-4-yl)methanol], for which the EC50 is 884 nM in experiment [1] and 340 nM in experiment [2].

For the molecule `CC(C)(C)Oc1cc(/C=C/c2cccc(F)c2)c2cc(C(O)(c3ccc(Cl)cc3)c3ccsc3)ccc2n1` (centres unmarked) [Compound 518, (E)-(2-(tert-butoxy)-4-(3-fluorostyryl)quinolin-6-yl)(4-chlorophenyl)(thiophen-3-yl)methanol], the EC50 was over 10000 nM in experiment [1] and 540 nM in experiment [2].

Consider `O=S(=O)(Oc1cc(C2=CCN(S(=O)(=O)C(F)(F)F)CC2)c2cc(C(c3ccc(Cl)cc3)c3ccc(Cl)cc3)ccc2n1)C(F)(F)F` [Compound 519, 6-(bis(4-chlorophenyl)methyl)-4-(1-((trifluoromethyl)sulfonyl)-1,2,3,6-tetrahydropyridin-4-yl)quinolin-2-yl trifluoromethanesulfonate], for which the figures for the concentration giving a half-maximal response (EC50) in experiment [1] and in experiment [2] were over 10000 nM and 40 nM, respectively.

Turning to `Clc1ccc(C(c2ccc3nccc(/C=C/c4ccccc4)c3c2)c2cscn2)cc1` (centres unmarked) [Compound 520, 6-[(4-Chlorophenyl)(1,3-thiazol-4-yl)methyl]-4-[(E)-2-phenylethenyl]quinoline], the results for the EC50 in experiment [1] and in experiment [2] were 169 nM and over 10000 nM, respectively.

Take `FC(F)(F)c1ccc(/C=C/c2ccnc3ccc(C(c4ccc(Cl)cc4)c4ccc(Cl)cc4)cc23)cc1` [Compound 521, 6-[Bis(4-chlorophenyl)methyl]-4-{(E)-2-[4-(trifluoromethyl)phenyl]-ethenyl}quinoline]: the EC50 in experiment [1] is 213 nM; in experiment [2] it was over 10000 nM.

Turning to `CC(=O)N1CCN(c2cc(OS(=O)(=O)C(F)(F)F)nc3ccc(C(c4ccc(Cl)cc4)c4nccs4)cc23)CC1` (centres unmarked) [Compound 522, 4-(4-Acetylpiperazin-1-yl)-6-[(4-chlorophenyl)(1,3-thiazol-2-yl)methyl]quinolin-2-yl trifluoromethanesulfonate], the EC50 in experiment [1] and in experiment [2] was over 10000 nM throughout.

As to `O=S(=O)(N1CCC(Nc2ccnc3c(Br)cc(C(c4ccc(Cl)cc4)c4ccc(Cl)cc4)cc23)CC1)C(F)(F)F` [Compound 524, 6-(bis(4-chlorophenyl)methyl)-8-bromo-N-(1-((trifluoromethyl)sulfonyl)piperidin-4-yl)quinolin-4-amine], the EC50 is 12 nM in experiment [1] and 180 nM in experiment [2].

In the case of `CCOC(=O)CCCNc1cc(C(O)(c2ccc(Cl)cc2)c2ccc(Cl)cc2)cc2c(NC3CCN(S(=O)(=O)C(F)(F)F)CC3)cc(OC(C)(C)C)nc12` [Compound 529, Ethyl 4-({6-[bis(4-chlorophenyl)(hydroxy)methyl]-2-tert-butoxy-4-({1-[(trifluoromethyl)sulfonyl]-piperidin-4-yl}amino)quinolin-8-yl}amino)butanoate], the EC50 in experiment [1] and in experiment [2] was over 10000 nM throughout.

For `COCCOc1cc(NC2CCN(S(=O)(=O)C(F)(F)F)CC2)c2cc(C(c3ccc(Cl)cc3)c3ccc(Cl)cc3)ccc2n1` [Compound 530, 6-(bis(4-chlorophenyl)methyl)-2-(2-methoxyethoxy)-N-(1-((trifluoromethyl)sulfonyl)piperidin-4-yl)quinolin-4-amine], the figures for the EC50 in experiment [1] and in experiment [2] were 23 nM and over 10000 nM, respectively.

As for `CC(C)(C)OC(=O)COc1cc(NC2CCN(S(=O)(=O)C(F)(F)F)CC2)c2cc(C(c3ccc(Cl)cc3)c3ccc(Cl)cc3)ccc2n1` [Compound 531, tert-Butyl ({6-[bis(4-chlorophenyl)methyl]-4-({1-[(trifluoromethyl)sulfonyl]-piperidin-4-yl}amino)quinolin-2-yl}oxy)acetate], the EC50 in experiment [1] and in experiment [2] was over 10000 nM each time.

`O=C(O)COc1cc(NC2CCN(S(=O)(=O)C(F)(F)F)CC2)c2cc(C(c3ccc(Cl)cc3)c3ccc(Cl)cc3)ccc2n1` [Compound 532, ({6-[Bis(4-chlorophenyl)methyl]-4-({1-[(trifluoromethyl)sulfonyl]-piperidin-4-yl}amino)quinolin-2-yl}oxy)acetic acid]: the EC50 came to 1280 nM in experiment [1] and 6700 nM in experiment [2].

In the case of `CNC(=O)COc1cc(NC2CCN(S(=O)(=O)C(F)(F)F)CC2)c2cc(C(c3ccc(Cl)cc3)c3ccc(Cl)cc3)ccc2n1` [Compound 533, 2-({6-[Bis(4-chlorophenyl)methyl]-4-({1-[(trifluoromethyl)sulfonyl]-piperidin-4-yl}amino)quinolin-2-yl}oxy)-N-methylacetamide], the EC50 in experiment [1] was 38 nM; in experiment [2], over 10000 nM.

With `COC(=O)CCCCCOc1cc(NC2CCN(S(=O)(=O)C(F)(F)F)CC2)c2cc(C(c3ccc(Cl)cc3)c3ccc(Cl)cc3)ccc2n1` [Compound 534, Methyl 6-({6-[bis(4-chlorophenyl)methyl]-4-({1-[(trifluoromethyl)sulfonyl]-piperidin-4-yl}amino)quinolin-2-yl}oxy)hexanoate], the EC50 in experiment [1] was 2200 nM; in experiment [2] it was over 10000 nM.

As to `O=C(O)CCCCCOc1cc(NC2CCN(S(=O)(=O)C(F)(F)F)CC2)c2cc(C(c3ccc(Cl)cc3)c3ccc(Cl)cc3)ccc2n1` [Compound 535, 6-({6-[Bis(4-chlorophenyl)methyl]-4-({1-[(trifluoromethyl)sulfonyl]-piperidin-4-yl}amino)quinolin-2-yl}oxy)hexanoic acid], the values for the EC50 in experiment [1] and in experiment [2] were 92 nM and 60 nM, respectively.

As to `COc1cc(C(c2ccc(Cl)cc2)c2ccc(Cl)cc2)cc2c(NC3CCN(S(=O)(=O)C(F)(F)F)CC3)ccnc12` [Compound 536, 6-[bis(4-chlorophenyl)methyl]-8-methoxy-N-[1-(trifluoromethane)sulfonylpiperidin-4-yl]quinolin-4-amine], the EC50 in experiment [1] stood at 100 nM; in experiment [2], 204 nM.

With `O=C(O)CCCCOc1cc(C(c2ccc(Cl)cc2)c2ccc(Cl)cc2)cc2c(NC3CCN(S(=O)(=O)C(F)(F)F)CC3)ccnc12` [Compound 537, 5-((6-(bis(4-chlorophenyl)methyl)-4-((1-((trifluoromethyl)sulfonyl)piperidin-4-yl)amino)quinolin-8-yl)oxy)pentanoic acid], the results for the EC50 in experiment [1] and in experiment [2] were 108 nM and 2380 nM, respectively.

With `NC(=O)CCCCOc1cc(C(c2ccc(Cl)cc2)c2ccc(Cl)cc2)cc2c(NC3CCN(S(=O)(=O)C(F)(F)F)CC3)ccnc12` [Compound 538, 5-((6-(bis(4-chlorophenyl)methyl)-4-((1-((trifluoromethyl)sulfonyl)piperidin-4-yl)amino)quinolin-8-yl)oxy)pentanamide], the values for the EC50 in experiment [1] and in experiment [2] were 51 nM and 8630 nM, respectively.
